Common to all, as to experiment: growth of human tumour cells (NCI), 48 h
Experiment [1] concerns MDA-N.
Experiment [2] has as its system SR.
Experiment [3] has as its system SK-MEL-5.
Experiment [4] has as its system LOX IMVI.
The subject of experiment [5] is CCRF-CEM.
Experiment [6] concerns OVCAR-8.
The test system of experiment [7] is OVCAR-5.
The test system of experiment [8] is SF-295.
The subject of experiment [9] is SF-539.
The test system of experiment [10] is PC-3.
The subject of experiment [11] is M14.
Experiment [12] relates to UO-31.
Experiment [13] relates to OVCAR-3.
Experiment [14] concerns ACHN.
The subject of experiment [15] is CAKI-1.
In experiment [16] the test system is SK-MEL-2.
Experiment [17] concerns SN12C.
Experiment [18] has as its system MCF7.
Experiment [19] concerns HT-29.

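Protocol summary: plate cells (96-well), add compound at 5 concentrations, incubate 48 h, interpolate endpoints linearly. GI50 marks 50% less growth.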 The source made the active and inactive calls. No stated cut-off is given here; in the data, active = GI50 up to about 1.1 µM and inactive = higher.

As for `CCCN(CCC)C(=O)c1c(N2CCN(C)CC2)c2cccnc2n2c(C)cnc12`, the GI50 was > 100 µM (inactive) in experiment [1]; 39.5 µM (inactive) in [2]; > 100 µM (inactive) in [3]; > 100 µM (inactive) in [4]; > 100 µM (inactive) in experiment [5]; > 100 µM (inactive) in experiment [6]. The GI50 is > 100 µM (inactive) in [7]; > 100 µM (inactive) in experiment [8]; > 100 µM (inactive) in experiment [9]; > 100 µM (inactive) in experiment [10]; > 100 µM (inactive) in experiment [11]; 70 µM (inactive) in experiment [12]. For the same compound, the GI50 is 94.8 µM (inactive) in experiment [13]; > 100 µM (inactive) in experiment [14]; 60.8 µM (inactive) in [15]; > 100 µM (inactive) in [16]; > 100 µM (inactive) in [17]; > 100 µM (inactive) in [18]. Moreover, the GI50 in experiment [19] was > 100 µM (inactive).
Turning to `COc1ccc2c(C(=O)c3c(C)n(CCN4CCOCC4)c4ccccc34)cccc2c1`, the GI50 in experiment [1] was 17.9 µM (inactive); in experiment [2], 19.2 µM (inactive); in [3], 17.5 µM (inactive); in experiment [4], 18.9 µM (inactive); in experiment [5], 2.77 µM (inactive); in experiment [6] it was 18.8 µM (inactive). In addition, the GI50 in [7] was > 100 µM (inactive); in experiment [8] it was 16.8 µM (inactive); in [9], 84.3 µM (inactive); in experiment [10], 12.7 µM (inactive); in experiment [11], 22.3 µM (inactive); in experiment [12], 34 µM (inactive). For the same compound, the GI50 in experiment [13] is 12.1 µM (inactive); in experiment [14] it was 37.5 µM (inactive); in [15] it was 59 µM (inactive); in experiment [16], 21.3 µM (inactive); in experiment [17], 71 µM (inactive); in [18], 11.3 µM (inactive). In addition, in [19], the GI50 was 21 µM (inactive).
Take `COc1cccc2c1C(=O)C(=O)c1c-2oc(=O)c2cc(C)cc(OC)c12`: the GI50 is 17.5 µM (inactive) in experiment [1]; 8.91 µM (inactive) in [2]; 17 µM (inactive) in experiment [3]; 13.6 µM (inactive) in experiment [4]; 17.5 µM (inactive) in experiment [5]; 14.9 µM (inactive) in experiment [6]. Moreover, the GI50 in [7] was > 75 µM (inactive); in [8] it was 45.3 µM (inactive); in experiment [9], 63 µM (inactive); in experiment [10] it was 37.8 µM (inactive); in experiment [11], 25.3 µM (inactive); in experiment [12], 35 µM (inactive). For the same compound, the GI50 in experiment [13] is 15.7 µM (inactive); in [14], > 75 µM (inactive); in experiment [15], 67.5 µM (inactive); in experiment [16] it was 16 µM (inactive); in [17], 53.8 µM (inactive); in experiment [18], 23.7 µM (inactive). Also, the GI50 in experiment [19] is 22.6 µM (inactive).
With `N#C/C(=C\Nc1ccccn1)C(=O)C1CC1`, the GI50 is > 100 µM (inactive) in [1]; > 100 µM (inactive) in experiment [2]; > 100 µM (inactive) in experiment [3]; > 100 µM (inactive) in experiment [4]; 76.9 µM (inactive) in experiment [5]; > 100 µM (inactive) in experiment [6]. For the same compound, the GI50 in [7], in [8], in experiment [9], in experiment [10], in experiment [11] and in experiment [12] was > 100 µM (inactive) throughout. Moreover, the GI50 in experiment [13], in experiment [14], in experiment [15], in experiment [16], in experiment [17] and in experiment [18] was > 100 µM (inactive) in each case. For the same compound, the GI50 in experiment [19] is > 100 µM (inactive).
With `COCC12CCC(OC)C34C5CC6(O)C(OC)CC(OC(C)=O)(C5C6OC(=O)c5ccccc5)C(C(OC)C13)C4N(C)C2` (configuration not stated), the GI50 in experiment [1] is > 100 µM (inactive); in experiment [2], 85.3 µM (inactive); in [3], > 100 µM (inactive); in [4], > 100 µM (inactive); in [5], > 100 µM (inactive); in experiment [6], > 100 µM (inactive). The GI50 in experiment [7], in experiment [8], in experiment [9], in experiment [10], in experiment [11] and in experiment [12] was > 100 µM (inactive) each time. The GI50 in [13], in experiment [14], in [15], in [16], in experiment [17] and in experiment [18] was > 100 µM (inactive) each time. Also, in [19], the GI50 was > 100 µM (inactive).
On to `CCCC(C)NC(=O)c1ccc(N(C)Cc2cnc3nc(N)nc(N)c3n2)cc1` (configuration not stated), for which the GI50 in experiment [1] is 14.6 µM (inactive); in experiment [2] it was 17.6 µM (inactive); in experiment [3], 10.1 µM (inactive); in [4], 5.42 µM (inactive); in experiment [5], 26.2 µM (inactive); in experiment [6], 14.9 µM (inactive). Moreover, the GI50 is 29.3 µM (inactive) in [7]; 27.6 µM (inactive) in experiment [8]; 11 µM (inactive) in experiment [9]; 9.84 µM (inactive) in [10]; 11.5 µM (inactive) in experiment [11]; 46.1 µM (inactive) in experiment [12]. Also, the GI50 in experiment [13] is 21.4 µM (inactive); in experiment [14], 35.2 µM (inactive); in experiment [15] it was 34 µM (inactive); in experiment [16], 21.8 µM (inactive); in experiment [17], 44.6 µM (inactive); in experiment [18], 23.3 µM (inactive). Besides, the GI50 in experiment [19] was 17.6 µM (inactive).
For `O=C(Nc1sccc1S(=O)(=O)c1ccc(Cl)cc1)c1ccc(F)cc1F`, the GI50 in experiment [1] was > 100 µM (inactive); in experiment [2] it was 18.2 µM (inactive); in [3] it was 49.4 µM (inactive); in experiment [4] it was > 100 µM (inactive); in experiment [5] it was 19.2 µM (inactive); in experiment [6] it was 30.9 µM (inactive). The GI50 in [7] was 27.8 µM (inactive); in [8], 23.3 µM (inactive); in experiment [9], 14.3 µM (inactive); in [10], 27.2 µM (inactive); in [11] it was > 100 µM (inactive); in [12], 22.2 µM (inactive). Besides, the GI50 in experiment [13] is 37.4 µM (inactive); in experiment [14], 32.1 µM (inactive); in [15] it was 26.2 µM (inactive); in experiment [16] it was 18.9 µM (inactive); in experiment [17], 56.8 µM (inactive); in [18], 40.5 µM (inactive). Also, the GI50 in [19] was > 100 µM (inactive).
For `c1ccc(-c2nnc(SCc3c[nH]c4ccccc34)n2-c2ccccc2)cc1`, the GI50 in [1] was 78 µM (inactive); in [2] it was 11.7 µM (inactive); in experiment [3], 15 µM (inactive); in experiment [4], 34.9 µM (inactive); in experiment [5], 25.9 µM (inactive); in experiment [6], 30.7 µM (inactive). Also, the GI50 in experiment [7] is > 100 µM (inactive); in experiment [8], 19.6 µM (inactive); in experiment [9], 18.9 µM (inactive); in experiment [10] it was 21.4 µM (inactive); in experiment [11], 78.9 µM (inactive); in [12], > 100 µM (inactive). For the same compound, the GI50 in [13] is 40.8 µM (inactive); in [14], 26.6 µM (inactive); in experiment [15], 33.1 µM (inactive); in experiment [16], 29.2 µM (inactive); in [17], 68.4 µM (inactive); in experiment [18] it was 42.3 µM (inactive). Besides, in experiment [19], the GI50 is 8 µM (inactive).
In the case of `O=C1CCCCCCCCCCC1CCCCCBr` (configuration not stated), the GI50 in experiment [1] is 31.8 µM (inactive); in [2], 24.7 µM (inactive); in [3], 15.3 µM (inactive); in [4], 19 µM (inactive); in experiment [5], 17 µM (inactive); in experiment [6], 31.8 µM (inactive). The GI50 is 25.1 µM (inactive) in experiment [7]; 34.4 µM (inactive) in experiment [8]; 22.8 µM (inactive) in experiment [9]; 31.2 µM (inactive) in experiment [10]; 33 µM (inactive) in [11]; 26.1 µM (inactive) in [12]. Besides, the GI50 in experiment [13] is 17.4 µM (inactive); in [14] it was 27.4 µM (inactive); in [15], 31.2 µM (inactive); in experiment [16] it was 16.9 µM (inactive); in [17], 22.3 µM (inactive); in experiment [18] it was 37 µM (inactive). For the same compound, in experiment [19], the GI50 is 25.9 µM (inactive).
For `NC(=O)NC(=O)c1cccc(NC(=O)CI)c1`, the GI50 in experiment [1] was < 0.01 µM (active); in experiment [2] it was < 0.01 µM (active); in experiment [3], < 0.0105 µM (active); in [4], < 0.0132 µM (active); in experiment [5], < 0.01 µM (active); in [6] it was < 0.0123 µM (active). The GI50 in experiment [7] is 0.151 µM (active); in experiment [8], 0.274 µM (active); in experiment [9] it was < 0.0229 µM (active); in experiment [10], 0.0316 µM (active); in experiment [12], 0.162 µM (active); in [13], < 0.01 µM (active). The GI50 in experiment [14] was < 0.017 µM (active); in [15], < 0.01 µM (active); in experiment [16] it was 0.0361 µM (active); in experiment [17], < 0.0197 µM (active); in experiment [18] it was < 0.01 µM (active); in [19], < 0.0178 µM (active).
With `CCC1(c2ccc(OC)c(OC)c2)CCN(S(=O)(=O)c2ccc(C)cc2)C1` (configuration not stated), the GI50 in experiment [1] is > 100 µM (inactive); in [2], > 10 µM (inactive); in experiment [3], 33.7 µM (inactive); in [4] it was > 100 µM (inactive); in experiment [5], > 100 µM (inactive); in [7], > 100 µM (inactive). Also, the GI50 in experiment [8], in [9], in [10], in experiment [11], in [12] and in [13] was > 100 µM (inactive) throughout. For the same compound, the GI50 in experiment [14], in experiment [15], in [16], in experiment [17], in experiment [18] and in [19] was > 100 µM (inactive) throughout.

The values are drawn from ChEMBL document CHEMBL1201862, “PubChem BioAssay data set” (2004).
